Test results from ChEMBL document CHEMBL1128811, “Isolation and structure of the exceptional Pterobranchia human cancer inhibitors cephalostatins 16 and 171” (1995).

How the values were obtained:
Type in all cases: functional
Tumor Cell line [1] = experiment: In vitro cytotoxic potency against 60 human tumor cell lines at 10e-7 M concentration
P388 = experiment: Effective dose against P388 cell line […]; details: Mus musculus, read-out: ED50 (the source's name)
Tumor Cell line [2] = experiment: In vitro cytotoxic potency against 60 human tumor cell lines at 10e-8 M concentration

C[C@@H]1[C@]2(O[C@H]3C=C4[C@@H]5CC[C@H]6Cc7nc8c(nc7C[C@]6(C)[C@H]5C[C@@H](O)[C@]4(C)[C@]31O)C[C@@H]1CC[C@H]3C4=CC[C@@H]5[C@H](C)[C@@]6(OC[C@]45C(=O)C[C@@H]3[C@@]1(C)C8)OC(C)(C)C[C@H]6O)O[C@](C)(CO)C[C@H]2O [CEPHALOSTATIN 1]
GI50 (Tumor Cell line [1]): ~1 nM

C[C@@H]1[C@H]2CC=C3[C@@H]4CC[C@H]5Cc6nc7c(nc6C[C@]5(C)[C@@]4(O)CC(=O)[C@@]32CO[C@]12OC(C)(C)C[C@H]2O)C[C@@H]1CC[C@H]2C3=C[C@@H]4O[C@@]5(CC[C@](C)(O)CO5)[C@@H](C)[C@]4(O)[C@@]3(C)[C@H](O)C[C@@H]2[C@@]1(C)C7 [CEPHALOSTATIN 16]
EC50 (P388): < 1 ng/mL | GI50 (Tumor Cell line [2]): ~1 nM
